Test results: EP0739882B1, “Novel aconitine compounds and analgesic/anti-inflammatory agent containing the same” (SANWA SHOYAKU KABUSHIKI KAISHA, priority 1991, dated 1993)

Key:
[1] = tested on: Male mice of the Std:ddY Strain; test: Analgesic activity by the acetic acid-induced writhing method; type: in vivo; conditions: Mus musculus; test compound s.c. 30 minutes before 0.7 % acetic acid i.p.; writhing counted for 10 minutes; Litchfield-Wilcoxon; 95 % confidence limits in brackets
Procedure: Experiment example 1 (Analgesic action)
Measurement of analgesic activity by the acetic acid-induced writhing method.
Male mice of the Std:ddY Strain (20 - 25g) were used. All mice were maintained at room temperature of 24 - 25 °C on a 12 hours light and dark cycle and were given food and water ad libitum. Test compound was used in 3 % suspension in gum arabic, 0.7 % acetic acid in 0.9 % physiological saline solution was injected i.p. (10ml / kg) at 30 minutes after test compound was administered s.c. After 10 minutes, the number of writhing movements was counted for a period of 10 minutes. 3 % gum arabic solution in 0.9 % physiological saline solution was used as a negative control. The ED50 values were calculated in accordance with the Litchfield-Wilcoxon's method based on judging to be positive in case of half and under the writhing number of negative control group.

[2] = Acute toxicity (LD50, s.c.); parameters: species or system mice; conditions: mouse, in vivo, sc, mortality during 72 hours, Litchfield-Wilcoxon, read-out: LD50 value, mg/kg (95 % confidence limits)
Procedure: Experiment example 3 (Acute toxicity)
Male mice of the Std:ddY Strain (20 - 25g) were used. The LD50 values were calculated using the method of Litchfield-Wilcoxon from the mortality during 72 hours after test compound was administered s.c. The results are shown in Table 3.

[3] = Property and solubility (qualitative solubility in solvents); type: physicochemical; conditions: for Solubility: solvents in which insoluble: hexane and water

Molecule	ED50 [1] [mg/kg]	LD50 at 72 h [2] [mg/kg]	Solubility: solvents in which soluble [3]	Solubility: solvents in which insoluble [3]
CCN1CC2(COC)C(O)CC(OC)C34C5CC6(O)C(OC)C(O)C(O)(C5C6OC(=O)c5ccc(F)cc5)C(C(OC)C23)C14 (stereo not shown) [14-O-p-fluorobenzoylaconine]	8.26	> 30	Soluble in ether, chloroform, benzene, ethanol, methanol, acetone, ethylacetate, pyridine and dimethyl sulfoxide	Insoluble in hexane and water
CCN1CC2(COC)C(O)CC(OC)C34C5CC6(O)C(OC)C(=O)C(C5C6OC(=O)c5cccc(Cl)c5)C(C(OC)C23)C14 (stereo not drawn) [14-O-m-chlorobenzoyl-16-epi-pyroaconine]	11.9	> 20	Soluble in ether, chloroform, benzene, ethanol, methanol, ethylacetate, pyridine and dimethyl sulfoxide	Insoluble in hexane and water
CCN1CC2(COC)C(O)CC(OC)C34C5CC6(O)C(OC)C(O)C(O)(C5C6OC(=O)c5ccc(Br)cc5)C(C(OC)C23)C14 (stereo not shown) [14-O-p-bromobenzoylaconine]	6.42	> 30	Soluble in ether, chloroform, benzene, ethanol, methanol, acetone, ethylacetate, pyridine and dimethyl sulfoxide	Insoluble in hexane and water
CCN1CC2(COC)CCC(OC)C34C5CC6C(OC)C(=O)C(C5C6OC(=O)c5cccc(Cl)c5)C(C(OC)C23)C14 (stereo not drawn) [3,13-dideoxy-14-O-m-chlorobenzoyl-16-epi-pyroaconine]	11	> 20	Soluble in ether, chloroform, benzene, ethanol, methanol, ethylacetate, pyridine and dimethyl sulfoxide	Insoluble in hexane and water
3,13-dideoxy-14-O-m-chlorobenzoylaconine			Soluble in ether, chloroform, benzene, ethanol, methanol, ethylacetate, pyridine and dimethyl sulfoxide	Insoluble in hexane and water
3,8-dideoxy-14-O-m-chlorobenzoylaconine			Soluble in ether, chloroform, benzene, ethanol, methanol, ethylacetate, pyridine and dimethyl sulfoxide	Insoluble in hexane and water
CCN1CC2(COC)CCC(OC)C34C5CC6C(OC)C(O)C(C5C6OC(=O)c5cccc(Cl)c5)C(C(OC)C23)C14 (stereo not shown) [3,8,13-trideoxy-14-O-m-chlorobenzoylaconine]			Soluble in ether, chloroform, benzene, ethanol, methanol, ethylacetate, pyridine and dimethyl sulfoxide	Insoluble in hexane and water
14-O-m-chlorobenzoylaconine			Soluble in ether, chloroform, benzene, ethanol, methanol, ethylacetate, pyridine and dimethyl sulfoxide	Insoluble in hexane and water
3-deoxy-14-O-m-chlorobenzoylaconine			Soluble in ether, chloroform, benzene, ethanol, methanol, ethylacetate, pyridine and dimethyl sulfoxide	Insoluble in hexane and water
CCN1CC2(COC)CCC(OC)C34C5CC6(O)C(OC)C(=O)C(C5C6OC(=O)c5cccc(Cl)c5)C(C(OC)C23)C14 (stereo not drawn) [3-deoxy-14-O-m-chlorobenzoyl-16-epi-pyroaconine]	10.1	> 20	Soluble in ether, chloroform, benzene, ethanol, methanol, ethylacetate, pyridine and dimethyl sulfoxide	Insoluble in hexane and water
COCC12CN(C)C3C4C(OC)C1C3(C(OC)CC2O)C1CC2(O)C(OC)C(O)C4(O)C1C2OC(=O)c1ccc(Cl)cc1 (stereo not shown) [14-O-p-chlorobenzoylmesaconine]	5.85	> 30	Soluble in ether, chloroform, benzene, ethanol, methanol, acetone, ethylacetate, pyridine and dimethyl sulfoxide	Insoluble in hexane and water
